Reference: PMC9283420, “Conformational changes in the catalytic region are responsible for heat-induced activation of hyperthermophilic homoserine dehydrogenase” (Communications Biology, 2022)

Legend:
[1] = target: T1, mature StHSD (heat-treated) (Sulfurisphaera tokodaii, UniProt F9VNG5); assay: initial velocity of NADH production at […] nm; Morrison fit; format: biochemical; details: read-out: apparent Ki
T1 construct: gene hom; full length (residues 1-304 described), recombinant from plasmid pSTHSD in E. coli BL21, matured by heat treatment (343 K); homodimer
T1 sequence (F9VNG5 1-304): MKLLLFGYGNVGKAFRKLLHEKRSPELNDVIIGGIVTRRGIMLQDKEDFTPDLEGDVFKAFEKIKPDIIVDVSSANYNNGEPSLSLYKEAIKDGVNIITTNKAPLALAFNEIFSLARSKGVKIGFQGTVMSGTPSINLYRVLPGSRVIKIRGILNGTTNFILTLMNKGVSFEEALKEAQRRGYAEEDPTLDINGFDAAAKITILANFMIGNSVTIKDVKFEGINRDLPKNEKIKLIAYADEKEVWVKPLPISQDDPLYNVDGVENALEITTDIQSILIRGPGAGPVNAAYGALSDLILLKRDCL

[2] = target: T2, immature StHSD (not heat-treated) (Sulfurisphaera tokodaii, UniProt F9VNG5); assay: as above; format: biochemical; details: read-out: apparent Ki
T2 construct: gene hom; full length (residues 1-304 described), recombinant from plasmid pSTHSD in E. coli BL21 at 310 K, purified without heat treatment; homodimer with C303-C303 intersubunit disulfide (oxidized)
T2 sequence (F9VNG5 1-304): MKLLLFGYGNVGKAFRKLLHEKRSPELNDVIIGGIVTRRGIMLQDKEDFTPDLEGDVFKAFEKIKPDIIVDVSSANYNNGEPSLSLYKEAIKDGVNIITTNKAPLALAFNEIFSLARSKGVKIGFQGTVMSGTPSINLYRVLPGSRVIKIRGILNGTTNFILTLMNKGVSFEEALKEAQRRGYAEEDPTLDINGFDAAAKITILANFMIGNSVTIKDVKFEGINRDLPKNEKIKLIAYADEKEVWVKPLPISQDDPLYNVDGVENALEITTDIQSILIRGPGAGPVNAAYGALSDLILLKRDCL

[3] = target: the molecule itself; assay: crystal structure; hanging-drop vapor diffusion at 295 K; immature enzyme as apo-form (IM) and with NADP+ and 1,4-butanediol (IM/NADP/BU); space group P2(1), two subunits in the asymmetric unit

Row | Molecule | Ki [1] [µM] | Ki [2] [µM] | stoichiometry N [3] [subunits]
1 | NC(=O)c1ccc[n+]([C@@H]2O[C@H](COP(=O)(O)OP(=O)(O)OC[C@H]3O[C@@H](n4cnc5c(N)ncnc54)[C@H](OP(=O)(O)O)[C@@H]3O)[C@@H](O)[C@H]2O)c1 [NADP^+] | 48 ± 1.2 | 26 ± 1.7 | –
2 | homoserine dehydrogenase from the hyperthermophilic archaeon Sulfurisphaera tokodaii strain 7 (StHSD), immature enzyme (enzyme, disulfide bond between the C303 residues of the two subunits, homoserine dehydrogenase, Sulfurisphaera tokodaii strain 7; The same recombinant enzyme after heat treatment is called the mature enzyme (cited structures 4YDR, 5X9D); The IM/NADP/BU crystal form also holds NADP+ and 1,4-butanediol; also called immature StHSD; IM/NADP/BU; source: Blue Sepharose for the apo-form) MKLLLFGYGNVGKAFRKLLHEKRSPELNDVIIGGIVTRRGIMLQDKEDFTPDLEGDVFKAFEKIKPDIIVDVSSANYNNGEPSLSLYKEAIKDGVNIITTNKAPLALAFNEIFSLARSKGVKIGFQGTVMSGTPSINLYRVLPGSRVIKIRGILNGTTNFILTLMNKGVSFEEALKEAQRRGYAEEDPTLDINGFDAAAKITILANFMIGNSVTIKDVKFEGINRDLPKNEKIKLIAYADEKEVWVKPLPISQDDPLYNVDGVENALEITTDIQSILIRGPGAGPVNAAYGALSDLILLKRDCL | – | – | 2
